The values below come from patent publication US20100184853A1, “TERPENES WITH ANTIFUNGAL ACTIVITY AGAINST MALASSEZIA YEASTS” (INSTITUTO BIOMAR, S.A., priority 2007, published 2010).

Molecules are shown by their SMILES.

This test concerns Malassezia furfur CBS 1878. In words: Antifungal disk diffusion susceptibility test. The format is cell-based. The following applies: 15 nmol per 6 mm paper disc; ML2 plates; two days at 30° C. On the procedure:
Antifungal activity was tested against Malassezia furfur CBS 1878.
Malassezia furfur was grown on ML2 agar plates containing potato dextrose agar 4.2%, ox bile 0.8%, glycerol 1% (v:v), olive oil 1% (v:v), tween 60 0.5% (v:v) for two days, at 30° C., as stock culture.
An area of 2 cm^2 of a growing plate of Malassezia furfur stock culture was scraped using a sterile loop. Biomass was homogenated in 1 ml glycerol 20%. A volume of 100 μl of the glycerol homogenate was spread on testing ML2 plates.
Each test compound was dissolved in distilled water and added on blank paper discs (6 mm, diameter) on the inoculated plates. Plates were incubated for two days at 30° C. Inhibition circles around the discs (halo) were used as activity measure.
Ketoconazol was used as inhibition control.
The test was carried out at 15 nmol for each compound. Antifungal activities are shown at table 1.
`CO[C@@H]1C(=O)CC[C@]2(CO2)[C@@]1(O)[C@@]1(C)O[C@@H]1CC=C(C)C` [Ovalicin]: the “Halo (inhibition circle around the disc)” value stood at 46 mm. With `CO[C@@H]1[C@H](OC(=O)/C=C/C=C/C=C/C=C/C(=O)O)CC[C@]2(CO2)[C@H]1[C@@]1(C)O[C@@H]1CC=C(C)C` [Fumagillin], the “Halo (inhibition circle around the disc)” value was determined as 27 mm.

Turning to `COC1C(=O)CCC(O)(CCl)C1(O)C1(C)OC1CC=C(C)C` (stereo not shown) [Chlovalicin], the “Halo (inhibition circle around the disc)” value is listed as 35 mm. Regarding `CC(=O)N1CCN(c2ccc(OCC3COC(Cn4ccnc4)(c4ccc(Cl)cc4Cl)O3)cc2)CC1` (stereo not shown) [Ketoconazol], the “Halo (inhibition circle around the disc)” value turned out to be 23 mm.
